We go through three compounds from patent publication US8710233B2 (Gruenenthal GmbH, priority 2005, dated 2014).

Like-named read-outs stand apart in the source and are kept apart here.

The target in one experiment is VR1/TRPV1 receptor (Homo sapiens, UniProt Q8NER1). Briefly: IC50 (human) after pH stimulus. Type of experiment: cell-based. The settings on record: table 4.
Experiment [1] concerns the target T1, vanilloid receptor 1 (VR1/TRPV1) of the rat species (Rattus norvegicus, UniProt O35433).
T1 construct: The spinal column is removed from decapitated rats; from tissue; host or cells: primary cells dissociated from rat dorsal root ganglia
Briefly: FLIPR Ca2+ influx assay on rat dorsal root ganglia cells (pharmacological method I). As to conditions: table 4, capsaicin. Type of experiment: cell-based. The method, boiled down:
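Primary rat dorsal root ganglion cells loaded with 2 μM Fluo-4, Ca2+ influx read on FLIPR as peak fluorescence. Triplicates, at least 3 independent experiments.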

For experiment [2], the system named is formaldehyde induced nociceptive behaviour. Briefly: Formaldehyde test in mice, second (late) phase. Type of experiment: in vivo, mouse. As to conditions: mouse, read-out: inhibition formaldehyde test (n = 10).

T1 sequence (O35433 whole entry): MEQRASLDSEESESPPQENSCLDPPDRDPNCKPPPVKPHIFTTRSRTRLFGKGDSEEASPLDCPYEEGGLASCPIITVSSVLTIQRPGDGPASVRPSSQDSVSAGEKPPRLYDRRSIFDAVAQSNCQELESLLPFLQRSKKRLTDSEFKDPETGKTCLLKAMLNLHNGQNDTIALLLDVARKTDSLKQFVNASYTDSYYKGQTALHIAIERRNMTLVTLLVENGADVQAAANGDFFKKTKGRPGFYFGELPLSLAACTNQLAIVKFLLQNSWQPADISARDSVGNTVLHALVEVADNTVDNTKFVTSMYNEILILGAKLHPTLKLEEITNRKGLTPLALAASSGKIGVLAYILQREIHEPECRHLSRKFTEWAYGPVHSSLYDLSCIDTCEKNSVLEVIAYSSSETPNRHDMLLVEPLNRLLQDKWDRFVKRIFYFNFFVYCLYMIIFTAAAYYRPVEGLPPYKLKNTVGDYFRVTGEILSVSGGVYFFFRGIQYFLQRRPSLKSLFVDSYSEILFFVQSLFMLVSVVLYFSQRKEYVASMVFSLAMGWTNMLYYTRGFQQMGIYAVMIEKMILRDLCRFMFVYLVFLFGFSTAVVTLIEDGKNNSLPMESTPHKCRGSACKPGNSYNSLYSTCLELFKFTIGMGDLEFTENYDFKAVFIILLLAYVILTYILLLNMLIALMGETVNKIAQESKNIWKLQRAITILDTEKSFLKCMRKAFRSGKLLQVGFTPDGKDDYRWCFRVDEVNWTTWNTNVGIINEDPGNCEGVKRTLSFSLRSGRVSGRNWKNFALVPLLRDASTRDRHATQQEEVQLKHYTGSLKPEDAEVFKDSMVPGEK
Chain of VR1/TRPV1 receptor (Q8NER1 whole entry): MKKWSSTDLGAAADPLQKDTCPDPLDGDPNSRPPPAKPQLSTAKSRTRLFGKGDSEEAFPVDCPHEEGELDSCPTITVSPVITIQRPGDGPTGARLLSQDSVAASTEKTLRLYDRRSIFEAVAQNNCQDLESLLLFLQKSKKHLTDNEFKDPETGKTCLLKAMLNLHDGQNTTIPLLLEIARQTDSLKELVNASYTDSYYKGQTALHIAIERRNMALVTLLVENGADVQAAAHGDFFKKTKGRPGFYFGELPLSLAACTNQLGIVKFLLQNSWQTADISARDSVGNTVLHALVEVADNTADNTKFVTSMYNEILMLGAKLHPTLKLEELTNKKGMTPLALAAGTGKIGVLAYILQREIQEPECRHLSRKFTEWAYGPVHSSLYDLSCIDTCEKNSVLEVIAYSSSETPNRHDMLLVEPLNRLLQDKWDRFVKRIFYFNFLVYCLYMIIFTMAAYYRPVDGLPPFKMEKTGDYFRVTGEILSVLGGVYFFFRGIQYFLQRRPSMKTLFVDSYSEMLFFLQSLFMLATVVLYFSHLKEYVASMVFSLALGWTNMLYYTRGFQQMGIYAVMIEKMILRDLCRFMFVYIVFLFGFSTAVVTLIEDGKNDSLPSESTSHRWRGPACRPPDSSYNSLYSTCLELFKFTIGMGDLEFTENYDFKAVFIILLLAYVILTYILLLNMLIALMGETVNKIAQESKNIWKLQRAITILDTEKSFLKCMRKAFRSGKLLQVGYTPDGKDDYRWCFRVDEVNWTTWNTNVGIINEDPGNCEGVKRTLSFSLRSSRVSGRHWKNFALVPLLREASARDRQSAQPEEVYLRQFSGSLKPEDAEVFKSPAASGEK

`Cc1ccc(Cl)cc1Nc1nc(C(F)(F)F)ccc1CNC(=O)C(C)c1ccc(NS(C)(=O)=O)c(F)c1` (centres unmarked) [Example 136, N-[2-(5-chloro-2-methyl-phenylamino)-6-trifluoromethyl-pyridin-3-ylmethyl]-2-(3-fluoro-4-methylsulfonamido-phenyl)-propionamide]: on VR1/TRPV1 receptor, the IC50 (commonly the midpoint of a concentration-inhibition curve) amounted to 0.14 µM. The Ki (in general, the equilibrium dissociation constant of an inhibitor or competing ligand from its target) in experiment [1] (read-out: Ki (rat) Cap.) is 0.0083 µM.

For the compound `CC(C(=O)NCc1ccc(C(F)(F)F)nc1OCCC(C)(C)C)c1ccc(NS(C)(=O)=O)c(F)c1` (centres unmarked) [Example 125], the inhibition in vivo at 0.3 mg/kg in experiment [2] (0.3 mg/kg body weight po) was found to be 24%. Inhibition against VR1/TRPV1 receptor was half-maximal at 0.0238 µM (IC50). This compound came in with a Ki in experiment [1] (Ki (rat) Cap.) of 0.001 µM.

As for `CC(C(=O)NCc1ccc(C(C)(C)C)nc1OC1CCCC1)c1ccc(NS(C)(=O)=O)c(F)c1` (centres unmarked) [Example 234, N-(6-tert-butyl-2-cyclopentyloxy-pyridin-3-ylmethyl)-2-(3-fluoro-4-methylsulfonamido-phenyl)-propionamide], the inhibition in vivo at 0.03 mg/kg in experiment [2] (0.03 mg/kg body weight po) was 5%. For the same compound, half-maximal inhibition on VR1/TRPV1 receptor (IC50) was put at 0.0853 µM. Besides, in experiment [1] (read-out: Ki (rat) Cap.), the Ki worked out at 0.001 µM.
